From ChEMBL document CHEMBL1126559, “Further studies of the structure-activity relationships of 1-[1-(2-benzo[b]thienyl)cyclohexyl]piperidine. Synthesis and evaluation of 1-(2-benzo[b]thienyl)-N,N-dialkylcyclohexylamines at dopamine uptake and phencyclidine binding sites” (J Med Chem, 1993)

Columns and labels:
[1] = target: T1, Sodium-dependent dopamine transporter (Rattus norvegicus, UniProt P23977); experiment: Tested for radioligand [3H]BTCP displacement from dopamine transporter in rat forebrain
[2] = target: T1, Sodium-dependent dopamine transporter; experiment: Tested for inhibition of radioligand [3H]dopamine (DA) uptake in rat synaptosomes; format: subcellular, Brain
Glutamate NMDA receptor = experiment: Tested for affinity by radioligand [3H]-TCP displacement from phencyclidine binding site (PCP) in rat homogenates
[3] = target: T1, Sodium-dependent dopamine transporter; experiment: Tested for radioligand [3H]cocaine displacement from dopamine transporter in rat forebrain

T1 sequence (P23977 whole entry): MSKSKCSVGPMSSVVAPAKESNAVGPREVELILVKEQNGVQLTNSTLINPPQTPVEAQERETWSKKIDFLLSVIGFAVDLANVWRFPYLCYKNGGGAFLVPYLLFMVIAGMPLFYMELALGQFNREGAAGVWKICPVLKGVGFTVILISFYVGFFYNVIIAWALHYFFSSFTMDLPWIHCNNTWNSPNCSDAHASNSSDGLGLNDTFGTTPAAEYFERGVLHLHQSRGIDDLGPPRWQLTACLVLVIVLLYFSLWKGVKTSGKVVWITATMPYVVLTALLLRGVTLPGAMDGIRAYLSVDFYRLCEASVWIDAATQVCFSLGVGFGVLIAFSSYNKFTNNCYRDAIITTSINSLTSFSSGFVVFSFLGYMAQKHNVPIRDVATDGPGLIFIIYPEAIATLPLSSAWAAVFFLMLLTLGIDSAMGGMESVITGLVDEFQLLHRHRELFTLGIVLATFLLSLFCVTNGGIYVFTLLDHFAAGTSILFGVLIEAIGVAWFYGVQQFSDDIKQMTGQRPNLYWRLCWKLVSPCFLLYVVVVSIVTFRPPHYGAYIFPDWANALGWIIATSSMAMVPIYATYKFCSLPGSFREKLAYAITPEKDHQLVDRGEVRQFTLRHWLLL

SMILES	IC50 [1] [nM]	IC50 [2] [nM]	Ki (Glutamate NMDA receptor) [nM]	IC50 [3] [nM]
O=C(Cc1ccc(Cl)c(Cl)c1)NCCNC1(c2cc3ccccc3s2)CCCCC1	579	947	> 10000	1480
CNCCNC1(c2cc3ccccc3s2)CCCCC1	17	29	> 10000	63
Clc1ccc(CCNCCNC2(c3cc4ccccc4s3)CCCCC2)cc1Cl	211	174	> 10000	713
c1ccc2sc(C3(NCC4CCC4)CCCCC3)cc2c1	4	7	> 10000	37
c1ccc2sc(C3(NCC4CC4)CCCCC3)cc2c1	1	4	> 10000	23
CC(C)=CCNC1(c2cc3ccccc3s2)CCCCC1	8	14	> 10000	50
NCCNC1(c2cc3ccccc3s2)CCCCC1	30	88	> 10000	170
c1ccc2sc(C3(N4CCCCC4)CCCCC3)cc2c1	–	11	> 10000	39
CCCCNC1(c2cc3ccccc3s2)CCCCC1	0.3	7	> 10000	60
CCCN(CCC)C1(c2cc3ccccc3s2)CCCCC1	37	81	> 10000	220
c1ccc(CNC2(c3cc4ccccc4s3)CCCCC2)cc1	143	196	> 10000	–
CCCCN(C)C1(c2cc3ccccc3s2)CCCCC1	21	33	> 10000	161
CCCCN(CCCC)C1(c2cc3ccccc3s2)CCCCC1	124	1360	> 10000	386
CCCCCNC1(c2cc3ccccc3s2)CCCCC1	24	34	> 10000	337
CNC1(c2cc3ccccc3s2)CCCCC1	101	57	> 10000	270
CNCCCNC1(c2cc3ccccc3s2)CCCCC1	8	89	> 10000	746
CNCCCCNC1(c2cc3ccccc3s2)CCCCC1	50	33	> 10000	328
CCCN(CC)C1(c2cc3ccccc3s2)CCCCC1	20	17	> 10000	207
CCN(CC)C1(c2cc3ccccc3s2)CCCCC1	12	12	> 10000	42
O=C1NCCN1C1(c2cc3ccccc3s2)CCCCC1	1740	2120	> 10000	> 5000
NCCCNC1(c2cc3ccccc3s2)CCCCC1	–	–	> 10000	–
CCNC1(c2cc3ccccc3s2)CCCCC1	22	22	> 10000	165
NCC(=O)NC1(c2cc3ccccc3s2)CCCCC1	114	138	> 10000	841
CN(C)C1(c2cc3ccccc3s2)CCCCC1	27	51	> 10000	84
Clc1ccc(CCNC2(c3cc4ccccc4s3)CCCCC2)cc1Cl	1000	> 5000	> 10000	> 5000
CCCNC1(c2cc3ccccc3s2)CCCCC1	4	5	> 10000	57
C=CCNC1(c2cc3ccccc3s2)CCCCC1	7	11	> 10000	57
COC(=O)[C@H]1[C@@H](OC(=O)c2ccccc2)C[C@@H]2CC[C@H]1N2C [COCAINE]	–	–	> 10000	–
